In patent publication US20220112199A1, “EGFR INHIBITOR FOR MEDICAL USE” (Hoffmann-La Roche Inc., priority 2019, published 2022) one finds IC50 data, which are given here for one molecule.

The target of this experiment is T1, EGFR TMLRCS (T790M/L858R/C797S) in BaF3-TMLRCS cell line (Homo sapiens, UniProt P00533, C797S/L858R/T790M).
T1 construct: host or cells: BaF3 (BaF3-TMLRCS cell line)
The experiment is described as follows: HTRF Phospho EGFR TMLRCS Assay (Cellular). It is filed as cell-based. The settings on record: BaF3-TMLRCS cells, 4 hours incubation. On the procedure: HTRF Phospho EGFR TMLRCS Assay (Cellular)
BaF3-TMLRCS cell line were obtained from Crownbio (San Diego, Calif., USA). Cells were maintained at 37° C., 5% CO2 in RPMI ATCC (Gibco 31870)+2 mM Glutamine+0.5 μg/ml Puromycin supplemented with 10% fetal bovine serum (FBS) (Gibco).
Cells are transferred as above to Greiner Bio-One, Nr. 784-08 micro-titerplate at 20000 cells/well in 12.5 μl of growth medium/well after the plates had been pre-filled with 12.5 nl of DMSO solutions of the to be tested compounds (in dose response) or DMSO only. After spinning the plates at 300 ×g for 30 seconds the cells were incubated for 4 hours at 37 C, 5% CO2, 95% humidity. The cells were lysed by adding to the compound mix 4 μl/well of the supplemented lysis buffer (Cis-bio, Phospho-EGFR HTRF kit, 64EG1PEH), followed by incubation for 30 min at room temperature with shaking (400 rpm). The plates were then frozen and stored overnight at −80 C. […] The lidded plates were then incubated for 4 h at room temperature before reading the fluorescence emission at 616 and 665 nm using an Envision reader (Perkin Elmer). Data was analyzed in similar fashion as above using the normalized ratio of the 665 to 616 signals multiplied by 10000.

T1 sequence (P00533 25-1210 T790M/C797S/L858R): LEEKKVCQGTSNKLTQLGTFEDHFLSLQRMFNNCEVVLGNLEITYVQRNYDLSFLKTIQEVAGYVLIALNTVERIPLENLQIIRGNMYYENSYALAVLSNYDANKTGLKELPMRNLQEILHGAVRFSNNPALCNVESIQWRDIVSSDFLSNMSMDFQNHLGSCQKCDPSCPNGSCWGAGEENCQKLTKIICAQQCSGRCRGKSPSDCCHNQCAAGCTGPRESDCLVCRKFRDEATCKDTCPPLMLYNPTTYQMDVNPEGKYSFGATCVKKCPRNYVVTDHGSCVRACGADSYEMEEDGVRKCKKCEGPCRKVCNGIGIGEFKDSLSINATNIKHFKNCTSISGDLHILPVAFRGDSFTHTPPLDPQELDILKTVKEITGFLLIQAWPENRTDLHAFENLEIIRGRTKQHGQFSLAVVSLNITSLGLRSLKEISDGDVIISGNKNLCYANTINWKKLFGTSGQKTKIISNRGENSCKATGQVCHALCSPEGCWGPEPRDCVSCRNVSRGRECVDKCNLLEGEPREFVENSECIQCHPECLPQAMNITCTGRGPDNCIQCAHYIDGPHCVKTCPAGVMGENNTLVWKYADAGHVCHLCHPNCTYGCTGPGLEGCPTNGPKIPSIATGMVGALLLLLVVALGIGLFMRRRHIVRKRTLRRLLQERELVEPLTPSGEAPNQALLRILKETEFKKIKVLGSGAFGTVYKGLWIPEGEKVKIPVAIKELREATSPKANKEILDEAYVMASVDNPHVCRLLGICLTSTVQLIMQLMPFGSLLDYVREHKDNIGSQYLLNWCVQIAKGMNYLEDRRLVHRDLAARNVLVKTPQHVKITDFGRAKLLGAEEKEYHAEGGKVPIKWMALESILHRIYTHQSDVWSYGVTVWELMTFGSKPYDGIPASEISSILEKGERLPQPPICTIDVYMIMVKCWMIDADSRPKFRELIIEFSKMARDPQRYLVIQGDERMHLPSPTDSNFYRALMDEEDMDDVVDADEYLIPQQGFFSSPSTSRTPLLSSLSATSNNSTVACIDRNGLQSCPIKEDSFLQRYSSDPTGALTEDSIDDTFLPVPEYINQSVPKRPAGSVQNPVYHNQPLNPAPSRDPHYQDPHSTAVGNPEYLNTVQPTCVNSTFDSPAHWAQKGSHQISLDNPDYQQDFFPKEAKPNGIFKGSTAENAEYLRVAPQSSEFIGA

The molecule `O=C(Nc1nccs1)C(c1ncn2c1CCC2)N1Cc2c(cc(C#Cc3ccc(CN4CCC(O)CC4)cc3)cc2C(F)(F)F)C1=O` (racemic) [Example 1, (2RS)-2-(6,7-Dihydro-5H-pyrrolo[1,2-c]imidazol-1-yl)-2-[6-[2-[4-[(4-hydroxy-1-piperidyl)methyl]phenyl]ethynyl]-1-oxo-4-(trifluoromethyl)isoindolin-2-yl]-N-thiazol-2-yl-acetamide] displayed an IC50 of 14 nM.
